Assay results from patent US12427192B2, “Water soluble adjuvant and composition containing same” (Sumitomo Pharma Co., Ltd., priority 2019, dated 2025).

System: HLA-A*24:02 transgenic mouse
Assay: Test 3: in vivo CTL induction, cocktail vaccine b, IFNγ ELISPOT
Conditions: FIG. 1; for CTL counts responsive to Peptide SEQ ID No. 2 on adding the compound to cocktail vaccine b: vs cocktail vaccine b alone, 100 ng Example 1 or 69 ng Reference example 12 per body, intradermal, twice
Procedure: Evaluation of In Vivo CTL Induction in HLA-A*24:02 Transgenic Mouse
The in vivo adjuvant activity of the compound of Example 1 and the compound of Reference example 12 was evaluated in the following procedure. To a cocktail vaccine comprising Compound of formula 4 prepared in Reference example 8 and Peptide SEQ ID No. 3 prepared in Reference example 3 with Montanide ISA 51 V (hereinafter, referred to as “cocktail vaccine b”) was added the compound prepared in Example 1 or the compound prepared in Reference example 12 respectively to prepare each vaccine. The vaccine was administered to a HLA-A*24:02 transgenic mouse, and the adjuvant activity of each vaccine was evaluated by the method of testing antigen-specific cytotoxic T-lymphocyte (CTL) induction.
The CYTWNQMNL (SEQ ID No. 2) in Compound of formula 4 corresponds to an antigen peptide derived from an HLA-A*24:02-restricted WT1 protein.
HLA-A*24:02 transgenic mouse (C57BL/6CrHLA-A2402/K^b) expresses a chimeric HLA of a human MHC (HLA-A*24:02) and a mouse MHC (H-2K^b). The mouse can induce CTLs with a peptide which can induce CTLs in HLA-A*24:02-positive human (Int J Cancer. 2002; 100: 565-70).
The character for inducing CTLs specific to the peptide (SEQ ID No. 2) by cocktail vaccine b was evaluated by measuring whether IFNγ can be produced upon stimulation of splenocytes from the mouse with the peptide (SEQ ID No. 2). In addition, the character for exerting in vivo adjuvant activity by the compound in Example 1 or the compound in Reference example 12 was evaluated by comparing the number of CTLs induced by cocktail vaccine b and the number of CTLs induced by the vaccine prepared by adding the compound prepared in Example 1 or the compound in Reference example 12 to cocktail vaccine b, and checking presence or absence of the increase on the number.
Specifically, Compound of formula 4 and Peptide SEQ ID No. 3 were dissolved in DMSO, and then diluted with water for injection to concentrations of Compound of formula 4 of 6 mg/ml and Peptide of SEQ ID No. 3 of 4.5 mg/ml. […]

Structure (SMILES) | CTL counts responsive to Peptide SEQ ID No. 2 on adding the compound to cocktail vaccine b | increase of the CTL counts (Peptide SEQ ID No. 2) compared with Reference example 12 (added to cocktail vaccine b, 100 ng Example 1 vs 69 ng Reference example 12 per body)
CCCCCNc1nc(N)nc(C)c1Cc1ccc(CNC)cc1OC [Reference example 12, 5-({2-methoxy-4-[(methylamino)methyl]phenyl}methyl)-6-methyl-N^4-pentylpyrimidine-2,4-diamine, reference compound] | increased | 
CCCCCNc1nc(N)nc(C)c1Cc1ccc(CN(C)CCOCCOCCOCCOCCO)cc1OC [Example 1, 1-(4-{[2-amino-4-methyl-6-(pentylamino)pyrimidin-5-yl]methyl}-3-methoxyphenyl)-2-methyl-5,8,11,14-tetraoxa-2-azahexadecan-16-ol·trifluoroacetate] | increased | more
